Assays:
[1] = Pharmacokinetic test in rats; type: in vivo, SD rats
Experimental: 3.1 Experimental animal: male SD rats, about 220 g, 6-8 weeks old, 6 rats/compound, purchased from Chengdu Ddossy Experimental Animals Co., Ltd.
3.2 Experimental design: on the day of the experiment, 30 SD rats were randomly grouped according to their body weights. The animals were fasted with water available for 12 to 14 h one day before the administration and were fed 4 h after the administration.
Before and after the administration, 0.15 ml of blood was taken from the orbit of the animals under isoflurane anesthesia and placed in an EDTAK2 centrifuge tube. The blood was centrifuged at 5000 rpm and 4° C. for 10 min to collect plasma. The blood collection time points for the intravenous administration group and intragastric administration group were 0, 5 min, 15 min, 30 min, 1 h, 2 h, 4 h, 6 h, 8 h and 24 h. The brain tissues were collected 24 hours after administration, rinsed with cold physiological saline to remove the residual blood on the surface, drained out and then homogenized. Before analysis and detection, all samples were stored at −80° C. The samples were analyzed quantitatively by LC-MS/MS.

[2] = Pharmacokinetic test in monkeys; type: in vivo, cynomolgus monkeys
Experimental: 6.1 Experimental animal: male cynomolgus monkeys, 3-5 kg, 3-6 years old, 4 monkeys/compound, purchased from Suzhou Xishan Biotechnology Inc.
6.2 Test method: On the day of the experiment, 8 monkeys were randomly grouped according to their body weights. The animals were fasted with water available for 14 to 18 h one day before the administration, and were fed 4 h after the administration.
Before and after the administration, 1.0 mL of blood was taken from the limb veins and placed in an EDTAK2 centrifuge tube. The blood was centrifuged at 5000 rpm and 4° C. for 10 min to collect plasma. The blood collection time points for the intravenous administration group were 0, 5 min, 15 min, 30 min, 1 h, 2 h, 4 h, 6 h, 8 h, 10 h, 12 h, 24 h and 48 h. Before analysis and detection, all samples were stored at −80° C. The samples were analyzed quantitatively by LC-MS/MS.

[3] = male, SD, rat, iv, rats, i.v. 2.5 mg/kg, plasma
[4] = male, cynomolgus monkey, iv, monkeys, i.v. (0.5 mg/kg), plasma

Compound: O=C(NC1CC1)c1ccc(N2CCN(Cc3ccc4nc(C(F)F)c(=O)[nH]c4c3F)CC2)c(F)n1 [Compound 12, N-cyclopropyl-5-(4-((2-(difluoromethyl)-5-fluoro-3-oxo-3,4-dihydroquinoxalin-6-yl)methyl)piperazin-1-yl)-6-fluoropicolinamide]
- pharmacokinetic characteristics in rats ([1]; conclusion in words): good pharmacokinetic characteristics
- Kp at 24 h ([1]; male, SD, rat, brain/plasma, intravenous, 2.5 mg/kg, rats, 24 h after administration, read-out: Brain/Plasma Ratio (24 h)): 1.5
- AUC(0-t) [1, 3]: 14500 ± 4760 ng·h/mL
- clearance [1, 3]: 3.13 ± 1.2 mL/min/kg
- Vd ([1]; male, SD, rat, iv, rats, i.v. 2.5 mg/kg, plasma, read-out: Vdss): 0.631 ± 0.12 L/kg
- bioavailability ([1]; male, SD, rat, plasma, po, rats, i.g. 10 mg/kg): ≥ 98%
- AUC(0-t) ([1]; male, SD, rat, po, rats, i.g. 10 mg/kg, plasma): 63300 ± 19600 ng·h/mL
- pharmacokinetic characteristics in monkeys ([2]; conclusion in words): good pharmacokinetic characteristics
- AUC(0-t) [2, 4]: 5470 ± 422 ng·h/mL
- clearance [2, 4]: 1.5 ± 0.13 mL/min/kg
- Vd ([2]; male, cynomolgus monkey, iv, monkeys, i.v. (0.5 mg/kg), plasma, read-out: Vdss): 0.419 ± 0.02 L/kg
- bioavailability ([2]; male, cynomolgus monkey, plasma, po, monkeys, i.g. (3 mg/kg)): 63.2 ± 6.1%
- AUC(0-t) ([2]; male, cynomolgus monkey, po, monkeys, i.g. (3 mg/kg), plasma): 20700 ± 1990 ng·h/mL
